Several values for one entry are separate records, joined by “and”; a condition that tells them apart may be missing. Equal values may be shown once. Read-outs that look alike come from different tables or passages of the source.
Experiments:
[1] = target: T1, full‐length His6‐JMJD6 (Homo sapiens, UniProt Q6NYC1); assay: JMJD6 SPE–MS inhibition assay (BRD4_511–550 hydroxylation); type: biochemical; settings: for IC50: His6‐JMJD6 0.05 µM, 2OG 100 µM, FAS 2 µM, BRD4_511–550 1 µM, L‐ascorbic acid 100 µM, means of two independent runs (mean ± SD)
T1 construct: Isolated recombinant full‐length human JMJD6 with a N‐terminal His6‐tag; made in house; host or cells: Escherichia coli BL21 (DE3)
Procedure: Co‐substrate concentrations were chosen based on reported SPE–MS kinetic parameters for the JMJD6‐catalyzed BRD4_511–550 monohydroxylation reaction.^[ [56] ^] […] Since JMJD6 has a relatively high 2OG Kmapp , the JMJD6 SPE–MS inhibition assay employs a 2OG concentration which is relatively high compared to most other 2OG oxygenase SPE–MS assays, possibly more accurately reflecting cellular 2OG concentrations.^[ [59] ^, [60] ^] Likely saturating concentrations of LAA (100 µM) and FAS (2 µM) were used.
JMJD6 catalyzes oxidation of BRD4_511–550 to give multiple hydroxylation products,^[ [56] ^] an observation potentially complicating data analysis.
Isolated recombinant full‐length human JMJD6 with a N‐terminal His6‐tag was produced in Escherichia coli BL21 (DE3) cells and purified as reported.^[ [1] ^, [56] ^] […] Purified His6‐JMJD6 was stored at −78 °C; fresh aliquots were used for all JMJD6 assays.
DMSO and 2,4‐PDCA (final assay concentration: 500 µM) were used as negative and positive inhibition controls, respectively. Each reaction was performed in technical duplicates in adjacent wells of the assay plates.
Cosubstrate/cofactor stock solutions (L‐ascorbic acid, LAA: 50 mM in Milli‐Q Ultrapure grade water; 2‐oxoglutarate, 2OG: 20 mM in Milli‐Q Ultrapure grade water; ammonium iron(II) sulfate hexahydrate, FAS, (NH4)2Fe(SO4)2·6H2O: […] in 20 mM aqueous HCl diluted to 1 mM in Milli‐Q Ultrapure grade water) were freshly prepared from commercial solids (Sigma–Aldrich) on the day of the experiment. BRD4_511–550 ([…]) was synthesized by solid‐phase peptide synthesis and was purified by GL Biochem (Shanghai) Ltd (Shanghai, China). Stock solutions of BRD4_511–550 (10 mM in water) were stored at −20 °C.
The plates were centrifuged (1000 rpm, 5 s) and incubated for 15 min at ambient temperature. The substrate mixture (2 × final concentration), containing BRD4_511–550 (2 µM), LAA (200 µM), 2OG (200 µM), and FAS (4 µM) in Tris buffer (50 mM; pH 7.5), was then dispensed across the plates (25 µL per well) using the multidrop dispenser. The plates were centrifuged (1000 rpm, 5 s) and incubated for 20 min at ambient temperature. The enzyme reaction was then stopped by the addition of 10%v/v aqueous formic acid (5 μL per well) using a 16‐channel electronic pipette (ThermoFischer Scientific). The plates were then centrifuged (1000 rpm, 30 s) and analyzed by MS.
Assay samples were aspirated under vacuum for 0.4 s and then loaded onto a C4 SPE cartridge. After loading, the C4 SPE cartridge was washed with 0.1%v/v aqueous formic acid to remove nonvolatile buffer salts (5 s, 1.5 mL min^−1). BRD4_511–550 and the corresponding hydroxylated product peptides were eluted from the SPE cartridge with 0.1%v/v aqueous formic acid in 75/25v/v acetonitrile/water into the mass spectrometer (5 s, 1.6 mL min^−1); the SPE cartridge was subsequently re‐equilibrated with 0.1%v/v aqueous formic acid (1 s, 1.25 mL min^−1).
Peaks corresponding to the m/z + 5 charge states of BRD4_511–550 and the corresponding mono‐ and dihydroxylated product peptides were extracted from the ion chromatogram and integrated using RapidFire Integrator 4.3.0 (Agilent).
From the raw data, dose–response curves (normalized to the 2,4‐PDCA and DMSO controls) were obtained by nonlinear regression (GraphPad Prism 5), which were used to determine IC50 values.

[2] = system: JMJD6; set-up: method as in PMID 34581506; settings: 10 µM JMJD6, 100 µM LUC7L2_267–278; ref [35]; read-out: reported IC50 (JMJD6, MALDI‐TOF MS) (converted); cited from earlier work
[3] = system: JMJD6; set-up: method as in PMID 33991627; settings: substrate other than BRD4_511–550, 2OG 10 μM, JMJD6 10 µM; ref [33]; read-out: reported IC50 (JMJD6, Succinate‐Glo) (converted); cited from earlier work
[4] = system: PHD2; set-up: method as in PMID 39291299; settings: isolated PHD2; ref [100]; cited from earlier work
[5] = system: JMJD6; set-up: method as in earlier work; settings: 10 µM JMJD6, 100 µM LUC7L2_267–278; ref [22]; read-out: reported IC50 (JMJD6, LC–MS) (converted); cited from earlier work
[6] = system: JMJD6; set-up: method as in PMID 31637004; settings: assay conditions not described; ref [20]; read-out: reported IC50 (JMJD6) (converted); cited from earlier work
[7] = system: JMJD6; set-up: method as in PMID 31857835; settings: fluorescence‐based assay; ref [32]; read-out: reported IC50 (JMJD6‐catalyzed histone dimethylarginine N‐demethylation); cited from earlier work
[8] = system: JMJD6; set-up: method as in PMID 35969736; settings: Succinate‐Glo and MALDI‐TOF assays; ref [31]; read-out: reported IC50 (JMJD6 lysine hydroxylation); cited from earlier work

SMILES	IC50 ([1]; read-out: IC50 (JMJD6, SPE–MS))	IC50 [2]	further results
O=C(O)CNC(=O)c1c(O)c2ccccc2n(Cc2ccccc2)c1=O [IOX2]	~19 µM and 7.1 µM	–	–
CN(C)NC(=O)CCC(=O)O [Daminozide]	–	94 µM	IC50 ([1]; IC50 (JMJD6, SPE–MS)): > 50 µM
O=C(NCC1CCC(C(F)(F)F)CC1)c1cnc(-n2cccn2)cc1O (stereo not drawn) [IOX5]	> 50 µM	–	–
Cn1ccc(-c2cc(C(=O)OCC(F)(F)F)ccn2)n1 [Compound 7p]	~4.2 µM and 4.2 µM	–	IC50 [3]: 0.68 µM
O=C(O)CC[C@@H](O)C(=O)O [D‐2‐Hydroxyglutarate]	> 50 µM	622 µM	–
O=C(O)CC(O)(CC(=O)O)C(=O)O [Citrate]	> 50 µM	987 µM	–
O=C(O)CNC(=O)c1c(O)cc(CCc2ccccc2)n2ncnc12 [Enarodustat]	~1.2 µM and 1.2 µM	–	IC50 [4]: 0.38 µM
CN(C)CCCNC(=O)c1ccc(-c2cc(O)c3ncccc3c2)cc1 [ML324]	~1.4 µM and 1.4 µM	–	–
O=C(O)C(=O)N[C@H](Cc1ccccc1)C(=O)O [NOFD, N‐oxalyl‐D‐phenylalanine]	> 50 µM	–	–
O=C(O)CCC(=O)O [Succinate]	> 50 µM	261 µM	–
O=C(O)c1ccc(O)c2ncccc12 [IOX1]	~6.4 µM and 6.4 µM	~10 µM and 10 µM	–
O=C(O)/C=C/C(=O)O [Fumarate]	> 50 µM	165 µM	–
O=C(O)c1ccnc(C(=O)O)c1 [2,4‐PDCA, pyridine‐2,4‐dicarboxylic acid]	~1.6 µM and 1.6 µM	~13 µM and 13 µM	IC50 [5]: ~5.4 µM and 5.4 µM
Oc1ccnc(N/N=C/c2ccccc2O)n1 [SKLB325]	~6.7 µM and 6.7 µM	–	IC50 [6]: 0.78 µM
Cc1nc(C(=O)NCC(=O)O)c(O)c2ccc(Oc3ccccc3)cc12 [Roxadustat]	> 50 µM	23 µM	–
O=c1c(-n2ccnn2)c[nH]n1-c1cc(N2CCOCC2)ncn1 [Molidustat]	~20 µM and 20 µM	74 µM	–
COc1ccc(C(NC(=O)c2cnc(-c3cccnn3)nc2O)c2ccc(OC)cc2)cc1 [MK‐8617]	> 50 µM	–	–
Cc1ccc2oc(=O)c(-c3nc4cnccc4[nH]3)cc2c1 [WL12]	> 50 µM	–	IC50 [7]: ~0.22 µM and 0.22 µM; IC50 [8]: > 100 µM
O=C(O)CNC(=O)C1C(=O)N(C2CCCCC2)C(=O)N(C2CCCCC2)C1=O [Daprodustat]	–	10 µM	IC50 ([1]; IC50 (JMJD6, SPE–MS)): ~28 µM and 28 µM
O=C(O)c1cnn(-c2nc3cc(OC(F)(F)F)c(Cl)cc3[nH]2)c1 [JNJ‐42041935]	> 50 µM	–	–
O=C(O)CC(O)C(=O)O (stereo not drawn) [Malate]	–	5100 µM	IC50 ([1]; IC50 (JMJD6, SPE–MS)): > 50 µM

SMILES	IC50 ([1]; read-out: IC50 (JMJD6, SPE–MS))	IC50 [2]	further results
O=C(O)CNC(=O)C1=C(O)CCN(Cc2ccc(Oc3ccc(Cl)cc3)nc2)C1=O [TP0463518]	~1.1 µM and 1.1 µM	–	–
CC(C)(NC(=O)c1c(O)c2ccccc2n(OCc2cscn2)c1=O)C(=O)O [Compound 48]	~7.1 µM and 19 µM	–	–
O=C(O)Cc1csc(=NC(=O)CS(=O)(=O)Cc2ccc3ccccc3c2)n1O [BNS]	~0.16 µM and 0.16 µM	–	–
O=C(O)CC(=O)C(=O)O [Oxaloacetate]	> 50 µM	204 µM	–
O=C(O)CNC(=O)c1ncc(-c2cccc(Cl)c2)cc1O [Vadadustat]	~17 µM and 17 µM	7 µM	–
O=C(O)CCC(=O)NO [Compound 1]	~3.6 µM and 3.6 µM	25 µM	–
Cn1ccc(-c2cc(C(=O)O)ccn2)n1 [Compound 10a]	~0.07 µM and 0.07 µM	–	fold more potent than Compound 7p in inhibiting JMJD6 ([1]; SPE–MS IC50 comparison): ≈ 60 fold; ligand efficiency (LE) ([1]; from JMJD6 SPE–MS potency): 0.67; fold less potent in Succinate‐Glo assay than in SPE–MS assay ([1]; reported Succinate‐Glo IC50 versus SPE–MS IC50): ≈ 25 fold; IC50 [3]: ~1.7 µM and 1.7 µM
O=C(O)CNC(=O)C(=O)O [NOG, N‐oxalylglycine]	> 50 µM	296 µM	–
CN(c1ccccc1)c1ccc2c(c1)CCC[C@H]2CNc1cnccc1C(=O)O [QC6352]	~2.8 µM and 2.8 µM	–	–
O=C(O)CNC(=O)c1c(O)c2ccccc2n(OCC2CC2)c1=O [Desidustat]	~2.7 µM and 2.7 µM	–	IC50 [4]: 1.3 µM
O=C(O)CC[C@H](O)C(=O)O [L‐2‐Hydroxyglutarate]	> 50 µM	871 µM	–
O=C(N/N=C/c1c(O)ccc2ccccc12)c1ccncc1 [AS‐8351]	~6.9 µM and 6.9 µM	–	–
C/C(=C\C(=O)O)C(=O)O [Mesaconate]	> 50 µM	–	–
O=c1c2ccccc2[se]n1-c1ccccc1 [Ebselen]	> 50 µM	–	–
CC(=O)C(=O)O [Pyruvate]	> 50 µM	2380 µM	–
O=C(O)/C=C/C(=O)N(O)CCCCNCc1ccc(COC(=O)Nc2cccc3ccccc23)cc1 [JMJD histone demethylase inhibitor III]	~0.1 µM and 0.1 µM	–	–
CC(C)c1cc(C(=O)N2CC[C@@H](NC(=O)C3CC3)C2)[nH]n1 [KDM5A‐IN‐1]	> 50 µM	–	–
O=C(O)CCNc1cc(N2CCc3ccccc3CC2)nc(-c2ccccn2)n1 [GSK‐J1]	> 50 µM	–	–
O=C(O)c1ccncc1NCc1ccco1 [Compound 34]	~2.6 µM and 2.6 µM	–	–
CC(C)c1c(-c2ccccc2)[nH]c2c(C#N)cnn2c1=O [CPI‐455]	> 50 µM	–	–
